Legend:
Assay in all cases: radiometric filter-binding kinase assay
PAK4 (human) = PAK4 (human) (UniProt O96013)
CHEK2 (human) = CHEK2 (human) (UniProt O96017)
PRKACA (human) = PRKACA (human) (UniProt P17612)
RPS6KA1 KD1 KD2 (human) = RPS6KA1 KD1 KD2 (human) (UniProt Q15418); settings: compound 10.0 µM
CaMK1 (human) = CaMK1 (human) (UniProt Q14012)
[1] = system: SGK1 (human), O00141 [S422D]
MAPK10 (human) = MAPK10 (human) (UniProt P53779)
DYRK1A (human) = DYRK1A (human) (UniProt Q13627)
[2] = system: AKT1 (human), P31749 [S473D]
MAP2K6 (human) = MAP2K6 (human) (UniProt P52564)
EPHB2 (human) = EPHB2 (human) (UniProt P29323)
HIPK2 (human) = HIPK2 (human) (UniProt Q9H2X6)
MARK2 (human) = MARK2 (human) (UniProt Q7KZI7)
MAPKAPK3 (human) = MAPKAPK3 (human) (UniProt Q16644)
DYRK2 (human) = DYRK2 (human) (UniProt Q92630)
MAPK1 (human) = MAPK1 (human) (UniProt P28482)
PLK1 (human) = PLK1 (human) (UniProt P53350)
MAP3K11 (human) = MAP3K11 (human) (UniProt Q16584)
PAK7 (human) = PAK7 (human) (UniProt Q9P286)
NUAK1 (human) = NUAK1 (human) (UniProt O60285)
EPHB3 (human) = EPHB3 (human) (UniProt P54753)
MAPK3 (human) = MAPK3 (human) (UniProt P27361)
MAPK13 (human) = MAPK13 (human) (UniProt O15264)
PRKAA1 or PRKAA2 (rat) = settings: accession and sequence are those of the human protein
ERBB4 (human) = ERBB4 (human) (UniProt Q15303)
PRKCA (human) = PRKCA (human) (UniProt P17252)
AURKA (human) = AURKA (human) (UniProt O14965)
SYK (human) = SYK (human) (UniProt P43405); settings: compound 10.0 µM
MST4 (human) = MST4 (human) (UniProt Q9P289)
BRSK2 (human) = BRSK2 (human) (UniProt Q8IWQ3)
MAPK8 (human) = MAPK8 (human) (UniProt P45983)
NEK2 (human) = NEK2 (human) (UniProt P51955)
MAPK12 (human) = MAPK12 (human) (UniProt P53778)
MKNK1 (human) = MKNK1 (human) (UniProt Q9BUB5)
IKBKE (human) = IKBKE (human) (UniProt Q14164); settings: compound 0.1 µM

MAP2K6 (human), sequence (P52564 whole entry, looked up): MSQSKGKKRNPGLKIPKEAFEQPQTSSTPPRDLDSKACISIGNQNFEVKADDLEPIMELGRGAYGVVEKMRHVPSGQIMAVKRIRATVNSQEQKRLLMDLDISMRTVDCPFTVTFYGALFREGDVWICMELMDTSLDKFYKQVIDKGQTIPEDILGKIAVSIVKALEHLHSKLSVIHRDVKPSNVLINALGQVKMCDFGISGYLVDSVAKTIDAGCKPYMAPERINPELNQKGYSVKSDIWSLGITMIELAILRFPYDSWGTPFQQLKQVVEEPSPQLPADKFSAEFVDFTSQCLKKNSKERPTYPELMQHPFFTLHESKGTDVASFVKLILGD
DYRK2 (human), sequence (Q92630 whole entry, looked up): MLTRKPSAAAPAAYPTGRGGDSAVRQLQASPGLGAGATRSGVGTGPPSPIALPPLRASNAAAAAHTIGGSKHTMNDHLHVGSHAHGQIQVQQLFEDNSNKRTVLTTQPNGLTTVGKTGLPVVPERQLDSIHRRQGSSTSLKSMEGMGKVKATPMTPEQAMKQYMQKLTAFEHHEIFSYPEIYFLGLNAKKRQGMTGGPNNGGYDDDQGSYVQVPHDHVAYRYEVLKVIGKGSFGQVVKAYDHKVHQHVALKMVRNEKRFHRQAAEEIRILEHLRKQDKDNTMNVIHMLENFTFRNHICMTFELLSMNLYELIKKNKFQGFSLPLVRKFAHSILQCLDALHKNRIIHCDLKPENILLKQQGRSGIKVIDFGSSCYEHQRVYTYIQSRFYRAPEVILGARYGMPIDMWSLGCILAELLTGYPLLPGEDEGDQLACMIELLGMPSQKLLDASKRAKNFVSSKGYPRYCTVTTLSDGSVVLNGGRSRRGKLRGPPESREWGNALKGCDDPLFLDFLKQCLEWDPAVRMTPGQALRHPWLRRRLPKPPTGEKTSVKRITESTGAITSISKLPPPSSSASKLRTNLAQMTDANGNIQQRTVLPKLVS
MAPK10 (human), sequence (P53779 whole entry, looked up): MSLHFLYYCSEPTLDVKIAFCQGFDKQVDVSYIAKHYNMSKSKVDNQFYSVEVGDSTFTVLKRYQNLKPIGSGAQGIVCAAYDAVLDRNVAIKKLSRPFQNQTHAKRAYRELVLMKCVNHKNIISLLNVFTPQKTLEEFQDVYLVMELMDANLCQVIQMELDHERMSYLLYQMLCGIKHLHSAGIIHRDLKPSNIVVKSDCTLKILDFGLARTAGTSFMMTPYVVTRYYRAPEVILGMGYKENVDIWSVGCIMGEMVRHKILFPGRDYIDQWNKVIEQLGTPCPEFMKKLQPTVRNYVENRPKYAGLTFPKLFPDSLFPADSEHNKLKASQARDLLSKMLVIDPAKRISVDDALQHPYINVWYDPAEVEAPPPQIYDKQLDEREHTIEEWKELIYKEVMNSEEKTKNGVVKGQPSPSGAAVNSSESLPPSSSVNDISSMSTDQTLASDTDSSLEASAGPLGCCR
MARK2 (human), sequence (Q7KZI7 whole entry, looked up): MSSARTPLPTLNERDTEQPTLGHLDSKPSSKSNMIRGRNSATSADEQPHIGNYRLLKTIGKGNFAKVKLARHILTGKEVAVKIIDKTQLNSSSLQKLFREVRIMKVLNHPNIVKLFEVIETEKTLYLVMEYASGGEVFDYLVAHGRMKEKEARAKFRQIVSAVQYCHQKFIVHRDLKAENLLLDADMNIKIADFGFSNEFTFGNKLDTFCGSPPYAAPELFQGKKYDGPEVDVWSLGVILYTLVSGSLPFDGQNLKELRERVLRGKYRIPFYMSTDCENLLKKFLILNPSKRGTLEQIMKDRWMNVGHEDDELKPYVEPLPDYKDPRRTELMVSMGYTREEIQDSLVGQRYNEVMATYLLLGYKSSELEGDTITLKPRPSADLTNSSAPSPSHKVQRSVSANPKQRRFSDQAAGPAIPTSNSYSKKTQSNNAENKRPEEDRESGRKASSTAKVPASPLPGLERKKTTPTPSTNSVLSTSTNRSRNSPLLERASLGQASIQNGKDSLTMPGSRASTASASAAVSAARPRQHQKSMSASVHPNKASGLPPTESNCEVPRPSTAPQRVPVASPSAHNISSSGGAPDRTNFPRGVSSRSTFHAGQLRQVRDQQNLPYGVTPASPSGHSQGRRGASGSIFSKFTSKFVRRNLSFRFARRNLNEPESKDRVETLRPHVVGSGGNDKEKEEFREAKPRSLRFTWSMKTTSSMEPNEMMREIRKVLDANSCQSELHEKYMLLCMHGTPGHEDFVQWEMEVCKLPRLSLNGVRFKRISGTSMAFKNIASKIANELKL
CHEK2 (human), sequence (O96017 whole entry, looked up): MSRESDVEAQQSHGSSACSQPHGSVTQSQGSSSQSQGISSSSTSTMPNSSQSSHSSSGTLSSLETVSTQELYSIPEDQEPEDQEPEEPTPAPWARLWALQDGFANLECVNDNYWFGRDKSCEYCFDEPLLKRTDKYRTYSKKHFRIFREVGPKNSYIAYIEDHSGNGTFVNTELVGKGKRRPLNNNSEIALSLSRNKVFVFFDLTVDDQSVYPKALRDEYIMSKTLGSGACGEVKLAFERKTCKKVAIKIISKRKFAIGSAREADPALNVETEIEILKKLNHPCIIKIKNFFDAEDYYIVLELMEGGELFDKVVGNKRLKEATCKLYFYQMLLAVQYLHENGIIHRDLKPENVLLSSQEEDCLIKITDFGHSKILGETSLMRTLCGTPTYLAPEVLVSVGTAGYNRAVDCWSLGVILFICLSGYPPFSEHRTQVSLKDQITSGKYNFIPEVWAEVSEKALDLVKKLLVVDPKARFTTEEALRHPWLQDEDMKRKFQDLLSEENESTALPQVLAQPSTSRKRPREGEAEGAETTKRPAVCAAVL
MKNK1 (human), sequence (Q9BUB5 whole entry, looked up): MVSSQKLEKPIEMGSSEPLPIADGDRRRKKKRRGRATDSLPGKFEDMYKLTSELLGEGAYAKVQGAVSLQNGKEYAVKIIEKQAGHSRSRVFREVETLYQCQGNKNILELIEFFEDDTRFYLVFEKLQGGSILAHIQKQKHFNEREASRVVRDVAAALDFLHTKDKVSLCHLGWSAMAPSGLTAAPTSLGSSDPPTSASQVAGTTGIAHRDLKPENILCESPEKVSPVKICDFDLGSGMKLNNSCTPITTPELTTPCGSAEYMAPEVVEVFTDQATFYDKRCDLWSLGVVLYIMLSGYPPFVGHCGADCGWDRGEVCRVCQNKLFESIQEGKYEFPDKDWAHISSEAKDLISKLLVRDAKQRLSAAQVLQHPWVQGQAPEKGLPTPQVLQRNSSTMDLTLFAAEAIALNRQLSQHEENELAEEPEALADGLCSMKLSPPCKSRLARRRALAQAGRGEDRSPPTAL
NUAK1 (human), sequence (O60285 whole entry, looked up): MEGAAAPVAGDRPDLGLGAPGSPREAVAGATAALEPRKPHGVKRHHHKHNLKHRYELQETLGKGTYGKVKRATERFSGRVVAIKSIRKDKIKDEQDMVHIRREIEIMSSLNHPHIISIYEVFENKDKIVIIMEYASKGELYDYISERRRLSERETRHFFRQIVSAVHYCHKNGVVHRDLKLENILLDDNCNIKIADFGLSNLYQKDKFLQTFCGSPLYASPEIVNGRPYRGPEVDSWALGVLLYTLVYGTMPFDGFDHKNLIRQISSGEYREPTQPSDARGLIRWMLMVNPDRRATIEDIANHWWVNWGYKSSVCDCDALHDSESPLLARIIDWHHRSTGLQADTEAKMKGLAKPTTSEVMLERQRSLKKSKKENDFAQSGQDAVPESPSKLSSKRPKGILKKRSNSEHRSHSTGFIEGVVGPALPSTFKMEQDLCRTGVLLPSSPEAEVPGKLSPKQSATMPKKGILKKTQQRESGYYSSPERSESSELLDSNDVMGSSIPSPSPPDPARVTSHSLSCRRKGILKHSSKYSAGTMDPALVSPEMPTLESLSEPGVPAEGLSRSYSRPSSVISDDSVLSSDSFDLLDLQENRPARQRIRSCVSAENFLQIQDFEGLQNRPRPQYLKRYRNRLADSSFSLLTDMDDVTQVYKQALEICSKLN
MAPK3 (human), sequence (P27361 whole entry, looked up): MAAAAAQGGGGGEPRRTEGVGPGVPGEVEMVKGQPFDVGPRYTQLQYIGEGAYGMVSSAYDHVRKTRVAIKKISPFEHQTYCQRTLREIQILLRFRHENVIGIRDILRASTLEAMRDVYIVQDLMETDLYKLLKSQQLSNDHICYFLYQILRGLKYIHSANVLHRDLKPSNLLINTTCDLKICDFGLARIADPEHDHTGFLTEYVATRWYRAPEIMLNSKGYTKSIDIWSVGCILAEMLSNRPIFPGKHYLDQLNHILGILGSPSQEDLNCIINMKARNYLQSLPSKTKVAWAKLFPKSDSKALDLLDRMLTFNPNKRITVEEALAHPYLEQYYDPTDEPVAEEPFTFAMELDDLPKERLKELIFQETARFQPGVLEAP
MAPK8 (human), sequence (P45983 whole entry, looked up): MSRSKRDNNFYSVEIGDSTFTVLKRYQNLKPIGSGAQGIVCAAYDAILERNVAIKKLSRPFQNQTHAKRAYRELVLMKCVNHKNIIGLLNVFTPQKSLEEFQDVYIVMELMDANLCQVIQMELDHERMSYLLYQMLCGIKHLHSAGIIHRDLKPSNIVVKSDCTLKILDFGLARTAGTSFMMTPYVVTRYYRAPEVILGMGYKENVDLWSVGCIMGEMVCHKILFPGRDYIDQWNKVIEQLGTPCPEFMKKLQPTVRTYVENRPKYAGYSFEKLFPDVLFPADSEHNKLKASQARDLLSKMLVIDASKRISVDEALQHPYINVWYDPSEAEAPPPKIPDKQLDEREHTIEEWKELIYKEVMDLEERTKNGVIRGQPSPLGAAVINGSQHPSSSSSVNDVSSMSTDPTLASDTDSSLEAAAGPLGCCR

**Q.** Which residual activity (PAK4 (human); compound 10.0 µM) does the source give for `O=S(=O)(c1ccc(F)c2nonc12)N1CCN(c2ncc(C(F)(F)F)cc2Cl)CC1` here?
**A.** Its residual activity is 83%.

**Q.** And the residual activity (CHEK2 (human); compound 10.0 µM)?
**A.** Its residual activity is 93%.

**Q.** What about the residual activity (PRKACA (human); compound 10.0 µM) of the same compound?
**A.** Its residual activity is 103%.

**Q.** What about the residual activity (RPS6KA1 KD1 KD2 (human)) of the same compound?
**A.** Its residual activity is 90%.

**Q.** And the residual activity (CaMK1 (human); compound 10.0 µM)?
**A.** The residual activity was 92%.

**Q.** What about the residual activity ([1]; compound 10.0 µM) of the same compound?
**A.** Its residual activity is 70%.

**Q.** What about the residual activity (MAPK10 (human); compound 10.0 µM) of the same compound?
**A.** The residual activity was 93%.

**Q.** And the residual activity (DYRK1A (human); compound 10.0 µM)?
**A.** Its residual activity is 72%.

**Q.** What about the residual activity ([2]; compound 10.0 µM) of the same compound?
**A.** The residual activity was 97%.

**Q.** And the residual activity (MAP2K6 (human); compound 10.0 µM)?
**A.** The residual activity was 95%.

**Q.** What about the residual activity (EPHB2 (human); compound 10.0 µM) of the same compound?
**A.** The residual activity was 102%.

**Q.** And the residual activity (HIPK2 (human); compound 10.0 µM)?
**A.** Its residual activity is 97%.

**Q.** What about the residual activity (MARK2 (human); compound 10.0 µM) of the same compound?
**A.** The residual activity was 95%.

**Q.** And the residual activity (MAPKAPK3 (human); compound 10.0 µM)?
**A.** The residual activity was 90%.

**Q.** What about the residual activity (DYRK2 (human); compound 10.0 µM) of the same compound?
**A.** Its residual activity is 107%.

**Q.** And the residual activity (MAPK1 (human); compound 10.0 µM)?
**A.** The residual activity was 90%.

**Q.** And the residual activity (PLK1 (human); compound 10.0 µM)?
**A.** The residual activity was 99%.

**Q.** And the residual activity (MAP3K11 (human); compound 10.0 µM)?
**A.** The residual activity was 89%.

**Q.** And the residual activity (PAK7 (human); compound 10.0 µM)?
**A.** Its residual activity is 92%.

**Q.** What about the residual activity (NUAK1 (human); compound 10.0 µM) of the same compound?
**A.** Its residual activity is 90%.

**Q.** What about the residual activity (EPHB3 (human); compound 10.0 µM) of the same compound?
**A.** Its residual activity is 86%.

**Q.** And the residual activity (MAPK3 (human); compound 10.0 µM)?
**A.** Its residual activity is 86%.

**Q.** What about the residual activity (MAPK13 (human); compound 10.0 µM) of the same compound?
**A.** Its residual activity is 85%.

**Q.** And the residual activity (PRKAA1 or PRKAA2 (rat); compound 10.0 µM)?
**A.** The residual activity was 92%.

**Q.** And the residual activity (ERBB4 (human); compound 10.0 µM)?
**A.** Its residual activity is 105%.

**Q.** And the residual activity (PRKCA (human); compound 10.0 µM)?
**A.** The residual activity was 82%.

**Q.** What about the residual activity (AURKA (human); compound 10.0 µM) of the same compound?
**A.** The residual activity was 99%.

**Q.** What about the residual activity (SYK (human)) of the same compound?
**A.** Its residual activity is 94%.

**Q.** What about the residual activity (MST4 (human); compound 10.0 µM) of the same compound?
**A.** Its residual activity is 104%.

**Q.** What about the residual activity (BRSK2 (human); compound 10.0 µM) of the same compound?
**A.** The residual activity was 108%.

**Q.** What about the residual activity (MAPK8 (human); compound 10.0 µM) of the same compound?
**A.** Its residual activity is 88%.

**Q.** What about the residual activity (NEK2 (human); compound 10.0 µM) of the same compound?
**A.** The residual activity was 102%.

**Q.** And the residual activity (MAPK12 (human); compound 10.0 µM)?
**A.** Its residual activity is 72%.

**Q.** What about the residual activity (MKNK1 (human); compound 10.0 µM) of the same compound?
**A.** The residual activity was 70%.

**Q.** With `CN1CCN(CCOc2cc(OC3CCOCC3)c3c(Nc4c(Cl)ccc5c4OCO5)ncnc3c2)CC1` as the compound, how does the residual activity (PAK4 (human); compound 0.1 µM) read?
**A.** Its residual activity is 99%.

**Q.** And the residual activity (CHEK2 (human); compound 0.1 µM)?
**A.** Its residual activity is 112%.

**Q.** And the residual activity (PRKACA (human); compound 0.1 µM)?
**A.** The residual activity was 105%.

**Q.** And the residual activity (CaMK1 (human); compound 0.1 µM)?
**A.** Its residual activity is 106%.

**Q.** What about the residual activity ([1]; compound 0.1 µM) of the same compound?
**A.** The residual activity was 112%.

**Q.** And the residual activity (MAPK10 (human); compound 0.1 µM)?
**A.** The residual activity was 116%.

**Q.** And the residual activity (DYRK1A (human); compound 0.1 µM)?
**A.** The residual activity was 94%.

**Q.** What about the residual activity ([2]; compound 0.1 µM) of the same compound?
**A.** Its residual activity is 99%.

**Q.** And the residual activity (MAP2K6 (human); compound 0.1 µM)?
**A.** Its residual activity is 100%.

**Q.** And the residual activity (EPHB2 (human); compound 0.1 µM)?
**A.** The residual activity was 66%.

**Q.** And the residual activity (HIPK2 (human); compound 0.1 µM)?
**A.** The residual activity was 80%.

**Q.** What about the residual activity (MARK2 (human); compound 0.1 µM) of the same compound?
**A.** The residual activity was 90%.

**Q.** What about the residual activity (MAPKAPK3 (human); compound 0.1 µM) of the same compound?
**A.** Its residual activity is 92%.

**Q.** What about the residual activity (DYRK2 (human); compound 0.1 µM) of the same compound?
**A.** The residual activity was 109%.

**Q.** What about the residual activity (MAPK1 (human); compound 0.1 µM) of the same compound?
**A.** The residual activity was 100%.

**Q.** What about the residual activity (PLK1 (human); compound 0.1 µM) of the same compound?
**A.** Its residual activity is 96%.

**Q.** And the residual activity (MAP3K11 (human); compound 0.1 µM)?
**A.** The residual activity was 85%.

**Q.** What about the residual activity (PAK7 (human); compound 0.1 µM) of the same compound?
**A.** Its residual activity is 98%.

**Q.** And the residual activity (NUAK1 (human); compound 0.1 µM)?
**A.** The residual activity was 95%.

**Q.** And the residual activity (EPHB3 (human); compound 0.1 µM)?
**A.** Its residual activity is 89%.

**Q.** What about the residual activity (MAPK3 (human); compound 0.1 µM) of the same compound?
**A.** Its residual activity is 93%.

**Q.** And the residual activity (MAPK13 (human); compound 0.1 µM)?
**A.** The residual activity was 91%.

**Q.** And the residual activity (PRKAA1 or PRKAA2 (rat); compound 0.1 µM)?
**A.** Its residual activity is 99%.

**Q.** And the residual activity (ERBB4 (human); compound 0.1 µM)?
**A.** The residual activity was 67%.

**Q.** What about the residual activity (PRKCA (human); compound 0.1 µM) of the same compound?
**A.** The residual activity was 100%.

**Q.** What about the residual activity (AURKA (human); compound 0.1 µM) of the same compound?
**A.** Its residual activity is 112%.

**Q.** What about the residual activity (IKBKE (human)) of the same compound?
**A.** The residual activity was 88%.

**Q.** What about the residual activity (MST4 (human); compound 0.1 µM) of the same compound?
**A.** Its residual activity is 104%.

**Q.** And the residual activity (BRSK2 (human); compound 0.1 µM)?
**A.** Its residual activity is 96%.

**Q.** What about the residual activity (MAPK8 (human); compound 0.1 µM) of the same compound?
**A.** Its residual activity is 97%.

**Q.** What about the residual activity (NEK2 (human); compound 0.1 µM) of the same compound?
**A.** Its residual activity is 94%.

**Q.** And the residual activity (MAPK12 (human); compound 0.1 µM)?
**A.** The residual activity was 94%.

**Q.** What about the residual activity (MKNK1 (human); compound 0.1 µM) of the same compound?
**A.** Its residual activity is 107%.

From the kinase profiling compilation of Christmann-Franck et al. (2016)
